Consider one compound from PMC7748245, “Identification and Optimization of a Series of 8-Hydroxy Naphthyridines with Potent In Vitro Antileishmanial Activity: Initial SAR and Assessment of In Vivo Activity” (Journal of Medicinal Chemistry, 2020).

A short description of series [1]: Kinetic aqueous solubility. The class given is physicochemical. As to the method:
(§1) These assays were conducted as previously described.[23]

The test system of a further series is phospholipidosis. Description: GSK eXP: phospholipidosis assay. The note with it: GSK eXP panel. The format is cell-based. The source says: (§2) First, the compounds which were poorly tolerated in mice, 28 and 34, were screened against a panel of >30 receptors with known links to in vivo toxicity (GSK-enhanced cross-screen panel (eXP)).[18] […] From this, it was not clear whether the effects seen in the receptor screen were related to the observed in vivo toxicity.

Series [2] in a line: Mouse PK study 50 mg/kg ip (metabolites, tolerability). The conditions noted are these: mouse. The format is in vivo. As to the method: Since 7 itself was metabolically unstable (Cli = 10 mg/mL/g), we became interested in transferring the SAR from the triazole subseries (e.g., 16) to investigate its impact on metabolic stability, with a particular focus on glucuronidation. To this end, we synthesized 26 (Table 5) as a direct analogue of triazole 16.
Figure 3 PK profile of 26, showing levels of parent, glucuronide adduct, major hydroxylated metabolite, and other minor metabolites. Data are based on two replicates, with error bars representing the range of the data from the two runs. Blood/water (30 μL, 1:2) were collected following 50 mg/kg ip administration to Balb C mice at prescribed time points; 90 μL of acetonitrile (ACN) was then added to each sample and the samples were centrifuged for 5 min at 7000 rpm; 90 μL of supernatant was removed and added to 50 μL of Milli-Q water before ultrahigh-performance liquid chromatography–quadrupole time-of-flight (UPLC Q-TOF) analysis.
We synthesized a set of benzyl amides, where 4-methoxy analogue 27 and α-methyl-4-fluoro analogue 28 both gave very encouraging profiles, meeting progression criteria in terms of potency, metabolic stability, and clearance. […] Due to its impressive in vitro potency, we selected 28 for progression into an in vivo PK study.
We noted that a related compound from Merck, L-870,810 (30),[17] was reported as a clinical candidate targeting HIV integrase, which progressed as far as phase II clinical trials. […] Also, introducing substituents into the 5-naphthyridyl position had been a successful strategy for improving metabolic stability and potency in the triazole subseries. We therefore investigated a range of 5-substituted naphthyridyl analogues (Table 5). THP-amine 31 and morpholine 32 lost potency compared to parent compound 7, so we switched attention back to 5-phenylnaphthyridines. […] Further combinations of nonaromatic amides with differently substituted 5-phenylnaphthyridines were synthesized, and while changing the phenyl substituent gave flat SAR and no advantage over previous compounds, exploration of the amide led to 34 with a trans-4-methoxycyclopropylamide. Compound 34 gave a good balance of potency, solubility, and microsomal stability and was therefore selected for a mouse PK study.

For a further series, the system named is L. donovani amastigotes. As to the kind of experiment: Intramacrophage L. donovani assay (Ld InMac). The format is cell-based, Leishmania donovani. The note with it: Leishmania donovani. As to the method: (§3) This assay was conducted as previously described,[8] except for compound exposure time, which was 96 h instead of 72 h.
The nature of a further series: Chrom Log D pH7.4. The class given is physicochemical. The conditions noted are these: pH 7.4. As to the method: This assay was conducted as previously described.[11]
Series [3] can be described thus: Mouse liver microsomal intrinsic clearance. The format is in vitro ADME. Here is the method: as §1
(Microsomes from liver hold many membrane-bound enzymes, among them those of drug oxidation.)

Another series relates to THP-1 cells. Description: THP-1 host cell toxicity readout of the intramacrophage assay. The class given is cell-based, human. As to the method:
as §3

In series [4] the test system is cell health (mitochondrial integrity). Description: GSK eXP: phenotypic cell health assay. The format is cell-based. The conditions noted are these: GSK eXP panel.
From the text: as §2

For series [5], the target named is bile salt export pump (BSEP) (Homo sapiens, UniProt O95342). Description: GSK eXP: bile salt export pump (BSEP) assay. The format is biochemical. The conditions noted are these: GSK eXP panel; read-out: pIC50 in BSEP assay (converted).
From the text: as §2

The structures appear in SMILES notation. Like-named read-outs stand apart in the source and are kept apart here.

Sequence of bile salt export pump (BSEP) (O95342 whole entry, species assumed): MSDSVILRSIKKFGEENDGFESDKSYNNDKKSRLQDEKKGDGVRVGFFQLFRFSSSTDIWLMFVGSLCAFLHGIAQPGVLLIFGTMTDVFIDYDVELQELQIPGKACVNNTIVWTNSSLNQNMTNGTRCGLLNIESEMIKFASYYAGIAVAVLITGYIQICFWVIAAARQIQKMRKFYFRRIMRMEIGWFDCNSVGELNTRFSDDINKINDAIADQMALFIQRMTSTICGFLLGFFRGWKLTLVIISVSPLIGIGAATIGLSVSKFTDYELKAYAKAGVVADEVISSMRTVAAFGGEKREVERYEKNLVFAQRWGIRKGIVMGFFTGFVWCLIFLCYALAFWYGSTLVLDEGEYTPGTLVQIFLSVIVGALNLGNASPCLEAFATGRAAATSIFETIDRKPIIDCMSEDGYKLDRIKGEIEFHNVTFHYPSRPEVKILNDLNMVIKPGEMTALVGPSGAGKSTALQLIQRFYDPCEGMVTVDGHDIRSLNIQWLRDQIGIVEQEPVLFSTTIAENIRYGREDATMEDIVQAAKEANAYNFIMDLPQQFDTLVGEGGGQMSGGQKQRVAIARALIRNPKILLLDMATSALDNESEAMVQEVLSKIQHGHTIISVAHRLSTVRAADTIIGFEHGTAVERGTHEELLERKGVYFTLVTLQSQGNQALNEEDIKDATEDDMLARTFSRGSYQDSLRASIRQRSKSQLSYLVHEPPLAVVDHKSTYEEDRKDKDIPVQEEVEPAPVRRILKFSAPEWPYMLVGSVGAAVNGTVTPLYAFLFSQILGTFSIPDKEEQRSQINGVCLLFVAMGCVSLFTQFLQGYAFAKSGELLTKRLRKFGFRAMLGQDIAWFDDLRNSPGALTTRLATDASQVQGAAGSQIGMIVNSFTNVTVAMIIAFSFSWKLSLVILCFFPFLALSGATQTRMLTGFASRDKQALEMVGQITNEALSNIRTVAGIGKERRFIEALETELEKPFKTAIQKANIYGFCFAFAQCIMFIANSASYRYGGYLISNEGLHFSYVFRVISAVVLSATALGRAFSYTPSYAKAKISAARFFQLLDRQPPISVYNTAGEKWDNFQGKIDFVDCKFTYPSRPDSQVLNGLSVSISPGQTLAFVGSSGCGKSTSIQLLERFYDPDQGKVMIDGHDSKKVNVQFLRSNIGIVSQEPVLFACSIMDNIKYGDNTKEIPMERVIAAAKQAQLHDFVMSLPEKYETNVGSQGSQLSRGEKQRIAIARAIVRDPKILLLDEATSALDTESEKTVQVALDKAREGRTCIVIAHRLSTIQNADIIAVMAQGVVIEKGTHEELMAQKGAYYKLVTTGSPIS

On to `COc1ccccc1-c1nc(C(=O)N[C@H]2CC[C@H](OC)CC2)c(O)c2ncccc12` [Compound 34, 8-Hydroxy-N-(trans-4-methoxycyclohexyl)-5-(2-methoxyphenyl)-1,6-naphthyridine-7-carboxamide], for which the solubility (in general, how much of the substance goes into solution per volume) in series [1] (aqueous medium (not further specified), supplement sheet) is above 250 µg/mL. Further, in series [1] (kinetic, read-out: Aq Solubility (kinetic aqueous solubility)), the kinetic solubility (in general, solubility judged after dilution from a stock solution rather than from solid) was above 250 µM. Also, the “activity in phospholipidosis assay” value with phospholipidosis is listed as “activity”. In series [2], the “time after which study was terminated” value worked out at 60 min. The “tolerability in mouse PK study” value in series [2] is “displayed the similar symptoms as with compound 28”. The EC50 with L. donovani amastigotes (THP-1, 96 h, L. donovani amastigotes in THP-1 cells, 96 h compound exposure, read-out: Ld InMac (pEC50) (converted)) was 1 µM; with THP-1 cells (human THP-1 host cells, read-out: THP-1 (pEC50) (converted)), 39.8 µM. Further, the IC50 in the series on L. donovani amastigotes (supplement sheet, read-out: LdInMac pIC50 (converted)) is 1 µM; in the series with THP-1 cells (Homo sapiens, THP-1, supplement sheet, read-out: THP1 pIC50 (converted)) it was 39.8 µM; in series [5], 15.8 µM. Also, the chromatographic logD in “Chrom Log D pH7.4” (chromatographic (HPLC retention) system, supplement sheet, read-out: ChromLogD) was found to be 5.7; in “Chrom Log D pH7.4” (chromatographic system (Chrom Log D), read-out: ChromLogDpH7.4), 5.7. Besides, the “Cli (mouse liver microsomal intrinsic clearance)” value in series [3] (mouse liver microsomes) was found to be 1.4 mL/min/g. Further, in series [3] (supplement sheet), the “Cli (mouse, ml/min/g)” value stood at 1.4 mL/min/g. Moreover, the “pIC50 in phenotypic cell health assay” value in [4] is reported as “showed potency in the cell health assay”.
